We go through one substance from patent publication US20250067753A1, “Protein array-based in vitro transglutaminase assay platform for epitope mapping and immunogen design” (priority 2021, published 2025).

Assay [1] deals with T1, guinea pig liver tissue transglutaminase (UniProt P08587).
T1 construct: guinea pig liver tissue transglutaminase (Sigma); purchased Sigma; host or cells: guinea pig liver (as named)
T1 sequence (P08587 1-690): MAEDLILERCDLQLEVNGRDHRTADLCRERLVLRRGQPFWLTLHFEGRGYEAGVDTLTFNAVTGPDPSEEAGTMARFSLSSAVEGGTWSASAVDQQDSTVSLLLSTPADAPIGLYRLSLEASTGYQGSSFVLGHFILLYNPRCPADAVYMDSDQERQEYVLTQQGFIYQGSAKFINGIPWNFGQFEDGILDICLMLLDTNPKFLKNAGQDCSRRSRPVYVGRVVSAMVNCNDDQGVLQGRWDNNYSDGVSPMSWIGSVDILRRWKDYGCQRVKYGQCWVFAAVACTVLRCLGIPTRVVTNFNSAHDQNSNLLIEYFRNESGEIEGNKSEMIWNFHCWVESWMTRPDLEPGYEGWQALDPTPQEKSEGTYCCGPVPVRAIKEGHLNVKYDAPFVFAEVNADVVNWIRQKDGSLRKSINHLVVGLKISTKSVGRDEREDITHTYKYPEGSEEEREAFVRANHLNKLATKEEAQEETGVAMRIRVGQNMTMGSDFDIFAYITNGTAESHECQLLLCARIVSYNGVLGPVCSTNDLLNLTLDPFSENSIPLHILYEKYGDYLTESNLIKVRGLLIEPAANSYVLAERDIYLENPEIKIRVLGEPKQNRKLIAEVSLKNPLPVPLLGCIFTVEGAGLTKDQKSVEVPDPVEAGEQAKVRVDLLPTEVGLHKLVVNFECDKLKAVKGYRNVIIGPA
As to the kind of experiment: Onchip in vitro TG2 assay (dansyl-cadaverine incorporation on peptide microchip). Type of assay: biochemical. Conditions: 100 μg/ml TG2, 3 mM dansyl-cadaverine, 5 mM Calcium Chloride, 37 degree, 30 minutes; anti-dansyl antibody/Alexa Fluor 594 readout. As to the method: To identify the glutamine residues that can be modified by tissue transglutaminase on the peptide microchip, the synthesized peptide microchip was incubated with 100 μg/ml guinea pig liver tissue transglutaminase (Sigma) and 3 mM dansyl-cadaverine (Sigma) in 1 ml of TBS containing 5 mM Calcium Chloride and 1 mM DTT at 37 degree for 30 minutes. Afterwards, the peptide chip was washed at least 3 times with TBS. After washing off tissue transglutaminase and dansyl-cadaverine molecules […] the synthesized peptides, the dansyl-cadaverine conjugated on the chip was tracked by rabbit anti-dansyl antibody (Invitrogen) followed by Alexa Fluor 594-labeled anti-rabbit secondary antibody (Invitrogen). Fluorescent microchip figures were quantified and analyzed with ArrayPro32. Original array figures and data are available upon request.
To characterize the glutamine-bearing TG2 modification motifs on these synthesized peptides, dansyl-cadaverine, a well-established amine donor in transglutaminase reaction, was covalently conjugated to the glutamine residues on the peptide chip by purified TG2 with the help of calcium (FIG. 1A). […] In this way the level of dansyl-cadaverine incorporation on a certain peptide was measured by the fluorescent intensity. […]

The next assay concerns transglutaminase. Conditions: as amine acceptor; Parameswaran, Velasco et al. 1990; cited from earlier work.

For QQIV, the “fluorescent intensity (level of dansyl-cadaverine incorporation)” value in assay [1] was around 5000. Also, the “competitive inhibitor for the transglutaminase reaction” value with transglutaminase is listed as “effective competitive inhibitor”.
